A short description of series [1]: Solubility / visual appearance in water, PBS or urea-PBS. The format is physicochemical. An excerpt: To attach the peptides to PEG, we selected a thiol-maleimide reaction[43,44] due to its efficiency under mild conditions (Fig. 1a). Therefore, we prepared cysteine-terminated L- and […], or […] and […]8 ^†), for conjugation to maleimide-functionalized 4-arm PEG. […] We note that […] peptides are only partially soluble and form a white dispersion in the 7 M urea 1× PBS solution (Fig. S10 ^†). […] In 1× PBS, while 1.5% (w/v) unconjugated KYFIL forms β-sheets, the conjugates are soluble and we see no evidence of β-sheet formation by infrared (IR) spectroscopy even at 15% ([…] ^†), corresponding to a peptide equivalent concentration of ∼2% (w/v), which exceeds the peptide concentrations in the 1.5% (w/v) formulations of peptide alone. As noted in our previous report on unconjugated KYFIL,[20] we used IR here for secondary structure determination rather than CD because the high peptide concentrations and the presence of salt that promote β-sheet formation also complicate CD spectra acquisition by saturating the detector. […] Moreover, the absorbances are more prominent at higher concentrations (Fig. 2b), signifying the relationship between secondary structure and hydrogel formation.

A further series has as its target T1, Proteinase K (Parengyodontium album, UniProt P06873).
T1 construct: purchased Sigma-Aldrich
The following applies: unconjugated KYFIL peptides; cited from earlier work. The method, then: Given the potential of peptide stereocomplexes to prolong hydrogel lifetime due to enhanced proteolytic stability, we were interested to learn whether the KYFIL stereocomplex cross-links boost the proteolytic stability of polymeric hydrogels. In our prior study with unconjugated KYFIL stereocomplexes, we incubated l-, 1 : 1 L : D-, and D-KYFIL in Proteinase K, an enzyme that is predicted to cleave L-KYFIL between the Y–F, F–I, and I–L residues.[57] We found more than 90% intact peptide in the 1 : 1 L : D-peptide mixtures after incubation with Proteinase K for 72 h, while only ∼35% L-KYFIL rema ...

Square brackets hold non-standard residues; d marks the D form. Ends that are not written are not given here. Peptide text beside a SMILES is read from it.

T1 sequence (P06873 106-384): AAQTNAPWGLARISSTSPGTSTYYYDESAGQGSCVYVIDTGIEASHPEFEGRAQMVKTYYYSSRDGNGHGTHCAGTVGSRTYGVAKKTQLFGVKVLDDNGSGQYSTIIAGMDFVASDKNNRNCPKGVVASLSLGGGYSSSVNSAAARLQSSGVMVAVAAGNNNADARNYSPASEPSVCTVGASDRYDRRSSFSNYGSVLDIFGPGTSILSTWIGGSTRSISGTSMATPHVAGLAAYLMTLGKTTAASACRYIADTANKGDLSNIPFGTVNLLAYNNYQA

As for `CC[C@@H](C)[C@@H](NC(=O)[C@@H](Cc1ccccc1)NC(=O)[C@@H](Cc1ccc(O)cc1)NC(=O)[C@H](N)CCCCN)C(=O)N[C@H](CC(C)C)C(=O)N[C@H](CS)C(N)=O` [D-KYFILC] (H-[dK][dY][dF][dI][dL][dC]-NH2), in series [1], the “solubility in water (in words)” value was “soluble”.

For KYFILC-NH2 [L-KYFILC], the “solubility in water (in words)” value in series [1] is on record as “soluble”.

Turning to “L-KYFIL [unconjugated L-peptide KYFIL of the authors' prior study]”, the “intact peptide after incubation with Proteinase K for 72 h” value on Proteinase K is reported as approximately 35%.

(Values after article PMC12129089, “Peptide stereocomplex cross-links for polymer hydrogels” (Chemical Science, 2025).)
